Measurements: publication PMC8143339, “PK/PD Modeling of the PDE7 Inhibitor—GRMS-55 in a Mouse Model of Autoimmune Hepatitis” (Pharmaceutics, 2021)
“Also recorded” adds a separate entry of the source.

How the values were obtained:
PDE3A = tested on: PDE3A; parameters: method as in PMID 31899535; conditions: cited from earlier work
PDE4B = experiment: in vitro PDE4B inhibition assay; format: biochemical; conditions: ratio of IC50 values
PDE1B = tested on: PDE1B; parameters: method as in PMID 31899535; conditions: cited from earlier work
[1] = Stability in serum samples and stock solutions (bioanalytical validation); format: physicochemical, mouse
Procedure: To analyze GRMS-55 concentrations in the mouse serum, we used the previously developed HPLC method with UV detection. A detailed description of this method was published in a supplementary material of our previous publication. Briefly, 10 μL of 4-(8-((furan-2-ylmethyl)amino)-1,3-dimethyl-2,6-dioxo-1,2,3,6-tetrahydro-7H-purin-7-yl)-N′-(2-hydroxybenzylidene)butanehydrazide solution as internal standard (IS) was added to tubes containing 100 μL of the analyzed serum. The samples were mixed with 20 μL of 1 M hydrochloric acid solution, subjected to extraction with 1 mL of dichloromethane, and centrifuged at 10,000× g for 8 min. The organic layers were transferred to new tubes and evaporated with nitrogen at 37 °C. Dry residues were then dissolved in 100 μL of mobile phase and transferred to glass vial inserts for HPLC analysis (LaChrom Elite, Merck-Hitachi, Darmstadt, Germany). […] Within runs and between runs, precision and accuracy met the acceptance criteria, i.e., they were less than 15% expressed as coefficients of variation % (CVs%) or ±15% of the nominal concentrations, respectively, for all quality control levels. Recoveries of the analyzed compound and IS assessed by comparing the peak areas of extracted samples with corresponding extracts of blanks spiked with the analyte post-extraction ranged from 94% to 98%. The lower limit of quantification was 0.05 mg·L^−1. […]

[2] = Assessment of emetogenicity: α2-adrenoceptor agonist-induced anesthesia (xylazine/ketamine); format: in vivo, male CD-1 mice; conditions: doses up to 100 mg/kg IP
Procedure: Male CD-1 mice were anesthetized with xylazine (10 mg·kg^−1) and ketamine (80 mg·kg^−1) in saline for injection-administered IP. Fifteen minutes later, the animals were IP-administered with GRMS-55 at doses of 50 or 100 mg·kg^−1, rolipram at a dose of 10 mg·kg^−1, or the corresponding volume of vehicle and subsequently placed in a dorsal recumbency position. The return of the righting reflex (i.e., when the animal turned itself spontaneously to a prone position) was used as an endpoint to measure the duration of anesthesia. In this test, shortening of the sleeping time is a behavioral correlate of emesis.

PDE4D = tested on: PDE4D; parameters: method as in PMID 31899535; conditions: in vitro assay at concentrations up to 200 µM; cited from earlier work

- stability in serum samples, time stable ([1]; room temperature): at least 12 h
- stability in serum samples, time stable ([1]; –20 °C): 12 months
- effect on sleeping time [2]: did not affect
Compound: Cn1c(=O)c2c(nc(NCCc3ccccc3)n2CCCC(=O)NN=Cc2ccccc2O)n(C)c1=O [GRMS-55, 4-(1,3-dimethyl-2,6-dioxo-8-(phenethylamino)-1,2,3,6-tetrahydro-7H-purin-7-yl)-N′-(2-hydroxybenzylidene)butanehydrazide]
- potency of PDE3A suppression (PDE3A): moderate
- times weaker inhibitor of PDE4B than rolipram (PDE4B): 24.5
- potency of PDE1B suppression (PDE1B): high
- PDE4D inhibition (PDE4D): not found to inhibit; also recorded: not active
